The text below walks through data of paper PMC7118210 (Frontiers in Pharmacology, 2020).

The nature of data set [1]: Multiple-dose pharmacokinetics in dogs. In kind it is in vivo, Beagle dogs. The protocol:
The optimal volume and activity in unit volume of enzyme solution [0.2 M acetic acid/water solution: 0.2 M ammonium acetate/water solution, 15:35 (v/v)] were determined through a pretest of the enzyme (rat plasma, 10 μl, 10 U μl^-1; dog plasma, 10 μl, 10 U μl^-1; human plasma, 20 μl, 20 U μl^-1; human urine, 10 μl, 10 U μl^-1). After enzyme incubation, 10 μl of IS solution was added to the plasma and urine samples (2 μg ml^-1 quercetin 3-β-D-glucoside for rat and dog plasma; 583 ng ml^-1 naringin-D4 and 160 ng ml^-1 naringenin-D4 for human plasma; and 9,710 ng ml^-1 naringin-D4 and 6,000 ng ml^-1 naringenin-D4 for human urine). To each fecal sample, 9-fold methanol-normal saline (2:1, v/v) was added, mixed (18,000 rpm, 15 min) by vortexing and centrifuged (10 min, 9,000 rpm, 4°C). Next, 10 μl IS solution (971 ng ml^-1 naringin-D4 and 600 ng ml^-1 naringenin-D4) was added to the supernatants of feces (200 μl) without enzyme incubation. […] The solid material was dissolved with acetonitrile-water (1:1, v/v) and injected into the ultra high-performance liquid chromatography coupled with triple quadrupole mass spectrometry (UHPLC/MS/MS) system as described below. The analysis of nonclinical and clinical samples was performed with a UHPLC/MS/MS system that consisted of a Shimadzu Nexera X2 ultra high-performance liquid chromatography (UHPLC) (Shimadzu Corp., Kyoto, Japan) coupled with an AB Sciex API4000 triple-quadrupole mass spectrometry (MS/MS) system (AB Sciex, Foster City, CA, USA) equipped with an electrospray ionization source and controlled by Analyst (v. 1.6.2) software. […] The injection volume was 10 μl with the flow rate of 0.3 ml min^-1 for plasma, and 0.4 ml min^-1 for urine and feces. The compounds were detected by multiple reaction monitoring in the negative ion electrospray mode. The electrospray source conditions were as follows: ion source gas1 30 psi, ion source gas2 60 psi, curtain gas 20 psi, collisionally activated dissociation (CAD) gas 8 psi, temperature 500°C, and ion spray voltage −4,500 V. Zero air was used for ion source gas1 and ion source gas2 and nitrogen for curtain gas and CAD gas. […] All pharmacokinetic and excretion parameters were expressed as mean ± standard deviation (SD). All mean and SD values were reported to three significant figures. The pharmacokinetic parameters were calculated using the Phoenix WinNonlin software (Version 6.4, Pharsight Corp., Cary, NC, USA) and compared using the Student's t-test (p < 0.05) in SPSS 18.0 (SPSS Inc., Chicago, IL, USA). […] For the multiple-dose studies, pharmacokinetic parameters included the mean plasma level at steady state, Tmax, t1/2, the percent fluctuation, and the accumulation index (Table 3). […] In addition, we compared the pharmacokinetic parameters obtained from males and females (Tables 4–6).

In another data set the target is T1, CYP 1A2 (Homo sapiens, UniProt P05177).
T1 construct: human liver microsomes (2.25 μl); tissue RILD Research Institute for Live Diseases (Shanghai, China) Co.Ltd; host or cells: human liver microsomes, 10-donor pooled
T1 sequence (P05177 whole entry): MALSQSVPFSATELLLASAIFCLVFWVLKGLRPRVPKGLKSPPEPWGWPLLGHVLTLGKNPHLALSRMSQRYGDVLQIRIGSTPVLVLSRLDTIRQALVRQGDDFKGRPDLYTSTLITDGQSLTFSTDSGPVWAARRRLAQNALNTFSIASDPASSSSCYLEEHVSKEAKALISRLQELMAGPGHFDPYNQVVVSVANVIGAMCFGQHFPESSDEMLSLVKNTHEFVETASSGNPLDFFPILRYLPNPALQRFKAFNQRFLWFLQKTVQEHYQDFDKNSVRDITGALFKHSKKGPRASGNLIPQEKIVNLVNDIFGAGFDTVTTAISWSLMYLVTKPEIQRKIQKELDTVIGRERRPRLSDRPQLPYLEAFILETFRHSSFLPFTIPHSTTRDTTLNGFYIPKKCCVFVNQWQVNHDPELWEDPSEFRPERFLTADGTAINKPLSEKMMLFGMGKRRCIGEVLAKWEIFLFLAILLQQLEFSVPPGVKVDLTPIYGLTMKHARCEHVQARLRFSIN
The data set is described as follows: CYP enzyme pathway, human liver microsomes with α-naphthoflavone (system III-human). In kind it is in vitro ADME. The settings on record: CYP1A2; of six metabolites measured in system III-human. The protocol: Five single inhibitor working solutions were separately added. Their concentrations were as follows: α-naphthoflavone (0.04 mM) for CYP 1A2, sulfaphenazole (0.8 mM) for CYP 2C9, (+/-)-N-3-benzylnirvanol (0.8 mM) for CYP 2C19, quinidine (0.08 mM) for CYP 2D6, and ketoconazole (0.04 mM) for CYP 3A4/5. All protein concentrations were 0.15 mg ml^-1 in the incubation system, except 0.3 mg ml^-1 for the sulfaphenazole working solution. Then, NADPH (10 mM, 30 μl) was added and the mixed solution incubated for 45 min. Finally, cold acetonitrile (600 μl, containing 100 ng ml^-1 flufenamic acid) was added to every tube, mixed by vortexing, centrifuged for 30 min at 14,000 g and 4°C, and the supernatants transferred into centrifuge tubes and injected into the UHPLC/MS/MS system as described above. Incubations were run in triplicate experiments.
To analyze compounds in incubation system III-human, a Luna C18 column (Phenomenex Inc., Torrance, CA, USA; 2.0 mm × 50 mm, 5 μm) was used at 40°C. The mobile phase consisted of 0.1% formic acid (v/v) in water (A) and 0.1% formic acid in acetonitrile (B). […] The injection volume was 10 μl with flow rate of 0.2 ml min^-1. The compounds were detected by multiple reaction monitoring in the negative ion electrospray mode.
In general terms: Microsomes from liver hold many membrane-bound enzymes, among them those of drug oxidation.

Details of data set [2]: method as in Li P. et al., 2013. As to conditions: Sprague-Dawley rats, 16 g kg^-1; ref Li P. et al., 2013; cited from earlier work.
The mark [3] stands for this setting: naringin 12.4 mg kg^-1 multiple dose, dog, female.
Where [4] appears, read: naringin 12.4 mg kg^-1 multiple dose, dog, male.
The mark [5] stands for this setting: naringin 12.4 mg kg^-1 p.o. three times a day, multiple dose, dog.

Structures are written as SMILES.

Consider `C[C@@H]1O[C@@H](O[C@H]2[C@H](Oc3cc(O)c4c(c3)O[C@H](c3ccc(O)cc3)CC4=O)O[C@H](CO)[C@@H](O)[C@@H]2O)[C@H](O)[C@H](O)[C@H]1O` [naringin, Naringin], for which the “accumulation in multiple-dose study” value in data set [1] (dogs) was “no significant accumulation”. For the same molecule, the CavSS amounted to 0.0221 ± 0.00341 µg/mL in data set [1] (setting [3]), 0.0151 ± 0.00253 µg/mL in data set [1] (setting [4]) and 0.0186 ± 0.00468 µg/mL in data set [1] (setting [5]). For the same molecule, the Fluctuation in data set [1] (setting [3]) turned out to be 370 ± 119%; in data set [1] (setting [4]), 242 ± 8.10%; in data set [1] (naringin 12.4 mg kg^-1 p.o. three times a day, multiple dose, dog, (CmaxSS−CminSS)/CavSS×100%), 306 ± 103%. Further, the “metabolites the enzyme contributes to” value on CYP 1A2 is on record as “one metabolite”. For the same molecule, in data set [2], the “toxicity after a single p.o. bolus dose” value was “no apparent toxicity”.

Regarding `O=C1C[C@@H](c2ccc(O)cc2)Oc2cc(O)cc(O)c21` [naringenin, Naringenin], the “accumulation in multiple-dose study” value in data set [1] (dog, in vivo) is “no significant accumulation”. The figures for the CavSS in data set [1] (setting [3]), in data set [1] (setting [4]) and in data set [1] (setting [5]) were 0.0507 ± 0.0161 µg/mL, 0.049 ± 0.0104 µg/mL and 0.0498 ± 0.0122 µg/mL, respectively.
